Results on 1 compound are retold here after US20130136772A1, “REGULATION OF IMMUNE RESPONSE BY COLOCYNTHIN AND/OR ITS DERIVATIVES” (priority 2010, published 2013).

The subject of assay [1] is TNF-α. Put plainly: In vivo TNF-α estimation in serum of LPS challenged mice. Particulars: 1, 2.5, 5 and 10 mg/kg oral for 6 days, LPS 1 mg/kg i.v., serum 90 min after LPS. Also on record: species or system balb/c mice. As to the method:
Invivo experiments were carried out using balb/c mice that were orally administrated with graded oral doses of AD-B-63B (1, 2.5, 5 and 10 mg/kg) for 6 days and challenged with LPS. Nitric oxide (NO) is an important mediator of diverse physiologic and pathologic processes, including many inflammatory diseases [Abramson S B, Amin A R, Clancy R M, Attur M, (2001). The role of nitric oxide in tissue destruction. Best Practice & Research Clinical Rheumatology; 15: 831-845]. Several lines of evidence implicate NO in the pathogenesis of inflammation. For example, rodents in animal models of arthritis generate abundant quantities of NO, as reflected in high levels of serum and urinary NO that develop in association with disease manifestations [Stefanovic-Racic M, Meyers K, Meschter C, Coffey J W, Hoffman R A, Evans C H, (1994). Monomethyl arginine, an inhibitor of nitric oxide synthase, suppresses the development of adjuvant arthritis in rats. Arthritis & Rheumatism; 37: 1062-1069.] [McCartney-Francis N, Allen J B, Mizel D E, Albina J E, Xie Q W, Nathan C F, Wahl S M, (1993). Suppression of arthritis by an inhibitor of nitric oxide synthase. Journal of Experimental Medicine; 178: 749-754.] [Weinberg J B, (1998). […] TNF-α, IL-1 beta and Nitric oxide production was evaluated by a commercial ELISA kits (R&D Systems) in serum from AD-B-63B treated mice, 90 min after LPS injection.

The test system of assay [2] is CD8+ T cells. Description: Lymphocyte immunophenotyping, CD8+ T cell population in SRBC immunised mice. It is filed as in vivo, Swiss albino mice. Particulars: graded doses; most significant suppression at 5 and 10 mg/kg vs sensitized control. From the text:
Immunophenotyping focuses on lymphocyte populations involved in acquired immunity. Specific molecules present on the cell surface defines characteristics of lymphocytes such as state of activation or functional capabilities. Murine monoclonal antibodies conjugated to a fluorochrome and directed against co-receptors CD4 and CD8 were used in a multi parametric flowcytometric assay to quantify the lymphocyte subsets associated with the cell-mediated immune response.
Estimation of T cell surface markers: On day 0, mice were immunized by injecting 200 μl of 5×10^9 SRBC/ml intraperitonially. Drug administration was carried out for 6 days including the day of immunization. Same amount of SRBC was used to challenge the animals on day 7. After 24 h of challenge, blood was taken from retro-orbital plexus of animals for estimation of CD4^+ and CD8^+ T cells. 100 μl of whole blood was taken in each tube and FITC (fluorescein isothiocyanate) labelled CD4+ and PE (phycoerythrin) labelled CD8+ monoclonal antibodies were added and mixed gently. Tubes were incubated in the dark for 30 min. at room temperature. Subsequently, 2 ml of 1× FACS lysing solution was added at room temperature with gentle mixing. Samples were again incubated at room temperature for 10 min. […]

As for `CC(=O)OC(C)(C)/C=C/C(=O)[C@](C)(O)[C@H]1[C@H](O)C[C@@]2(C)[C@@H]3CC=C4[C@@H](C=C(O[C@@H]5O[C@H](CO)[C@@H](O)[C@H](O)[C@H]5O)C(=O)C4(C)C)[C@]3(C)C(=O)C[C@]12C` [AD-B-63B, 2-O-β-D-glucopyranosyl cucurbitacin E], the “Level of serum TNF-α” value in assay [1] was “significant reduction”. Besides, in assay [2], the “percentage of CD8+ T-cell population” value is recorded as “decrease”.
